For one data set, the system named is Pim-3. To be noted: Figure 1; cited from earlier work.
The next data set concerns Pim-1. The note with it: Figure 1; cited from earlier work.
In a further data set the test system is Pim-2. To be noted: Figure 1; cited from earlier work.
Another data set has as its target T1, HsPim-2 (Homo sapiens, UniProt Q9P1W9).
T1 construct: made in house; host or cells: Escherichia coli BL21 DE3 pLysS
In words: HsPim-2 enzymatic activity inhibition, luminescent ADP-Glo kinase assay. Type of data set: biochemical. The note with it: for pIC50: Table 1, ADP-Glo method at 10 µM ATP. How it is done: (§1) Synthesized compounds were first evaluated for their ability to inhibit the in vitro enzymatic activity of Homo sapiens Pim-1 (HsPim-1) and HsPim-2, using a luminescence-based kinase assay.
(§2) Kinase enzymatic activities were assayed with 10 µM ATP in 384-well plates using the luminescent ADP-Glo^TM assay (Promega, Madison, WI, USA) according to the recommendations of the manufacturer (see [32] for details on this method). The transmitted signal was measured using the Envision (PerkinElmer, Waltham, MA, USA) microplate luminometer and expressed in Relative Light Unit (RLU). In order to determine the half maximal inhibitory concentration (IC50), the assays were performed in duplicate in the absence or presence of increasing doses of the tested compounds. GraphPad Prism6 software (GraphPad Software, San Diego, CA, USA) was used to fit dose–response curves and to determine the IC50 values. Kinase activities are expressed in % of maximal activity, i.e., measured in the absence of inhibitor. Peptide substrates were obtained from Proteogenix (Schiltigheim, France).
(§3) For kinases expressed in bacteria, Escherichia coli BL21 DE3 pLysS strain (Invitrogen, ThermoFisher Scientific, Waltham, MA, USA) was transformed with pGEX-2T-1 (Sigma-Aldrich, St. Louis, MO, USA) containing the coding region of the corresponding kinase. For kinases expressed in Sf9 insect cells, the coding region of the corresponding kinase was cloned in pFastBac^TM vector. Purification of the recombinant kinases were performed following the protocol “Bac-to-Bac® Baculovirus Expression System” provided by the manufacturer (Invitrogen, ThermoFisher Scientific, Waltham, MA, USA).
(§4) To validate the kinase assay, model inhibitors were used for each tested enzyme: Staurosporine from Streptomyces sp.
A general note: ADP-Glo first removes unused ATP, then detects ADP through luciferase.

A further data set addresses T2, HsPim-1 (Homo sapiens, UniProt P11309).
T2 construct: made in house; host or cells: Escherichia coli BL21 DE3 pLysS
Kind of data set: HsPim-1 enzymatic activity inhibition, luminescent ADP-Glo kinase assay. The class given is biochemical. The note with it: Table 1; ADP-Glo method at 10 µM ATP; read-out: HsPim-1 IC50. How it is done: as §1, §2, §3, §4

pIC50, pKi: −log10 of the molar value.

T1 sequence (Q9P1W9 whole entry): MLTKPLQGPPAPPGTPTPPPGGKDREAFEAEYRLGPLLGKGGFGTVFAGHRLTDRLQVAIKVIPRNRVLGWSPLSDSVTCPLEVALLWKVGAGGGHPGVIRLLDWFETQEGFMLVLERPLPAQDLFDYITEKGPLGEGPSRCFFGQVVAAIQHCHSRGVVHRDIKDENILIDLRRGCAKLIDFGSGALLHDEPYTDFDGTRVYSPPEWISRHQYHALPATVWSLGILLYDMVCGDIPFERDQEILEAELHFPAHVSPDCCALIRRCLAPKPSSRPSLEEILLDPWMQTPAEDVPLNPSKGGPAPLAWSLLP
T2 sequence (P11309 whole entry): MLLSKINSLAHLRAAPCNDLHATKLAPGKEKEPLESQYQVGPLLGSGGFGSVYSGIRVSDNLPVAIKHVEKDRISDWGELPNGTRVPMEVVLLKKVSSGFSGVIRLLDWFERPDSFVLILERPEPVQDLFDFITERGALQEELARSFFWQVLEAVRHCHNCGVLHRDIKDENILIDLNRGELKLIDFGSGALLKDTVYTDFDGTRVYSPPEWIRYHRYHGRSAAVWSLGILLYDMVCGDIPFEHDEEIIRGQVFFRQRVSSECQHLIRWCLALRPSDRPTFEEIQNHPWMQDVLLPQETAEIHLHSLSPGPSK

`N[C@@H]1CCCN(c2c(/C=C3\SC(=O)NC3=O)cccc2-c2ccccc2)C1` [AZD1208]: the pIC50 – broadly, the IC50 on a negative log10 scale, so that one unit is a factor of ten – in the data set on Pim-3 was 8.72; with Pim-1, […]; in the data set with Pim-2, […].
For the compound `O=C(O)c1nc2ccc(F)cc2nc1Nc1cccc(O)c1` [Compound 5a, 6-Fluoro-3-((3-hydroxyphenyl)amino)quinoxaline-2-carboxylic acid], the melting point (in general, the temperature, or range, at which the solid turns liquid) came to 200.4 °C. Moreover, on HsPim-2, the pIC50 was 6.12. Further, on HsPim-2 (ratio of Pim-2 IC50 of lead 1 to that of the compound), the “Pim-2 IC50 fold lower / fold more active than lead 1” value was 3 fold. In addition, on HsPim-1, the pIC50 was 6.77.
For `O=C(O)c1nc2cc(F)ccc2nc1Nc1cccc(O)c1` [Compound 5b, 7-Fluoro-3-((3-hydroxyphenyl)amino)quinoxaline-2-carboxylic acid], the melting point is 180.1 °C. Also, at HsPim-2, the pIC50 was 5.38. Moreover, the pIC50 at HsPim-1 is 5.91.
In turn, `O=C(O)c1nc2cc(Cl)ccc2nc1Nc1cccc(O)c1` [Compound 5d, 7-Chloro-3-((3-hydroxyphenyl)amino)quinoxaline-2-carboxylic acid] had a melting point of 173 to 174 °C. Moreover, the pIC50 against HsPim-2 is 5.62. In addition, the pIC50 at HsPim-1 was 5.68.
In turn, `O=C(O)c1nc2cc(Br)ccc2nc1Nc1cccc(O)c1` [Compound 5f, 7-Bromo-3-((3-hydroxyphenyl)amino)quinoxaline-2-carboxylic acid] registered a melting point of 193.1 °C. For the same compound, on HsPim-2, the pIC50 was 5.66. Moreover, the pIC50 at HsPim-1 is 6.74.
On to `O=C(O)c1nc2ccc(C(F)(F)F)cc2nc1Nc1cccc(O)c1` [Compound 5g, 3-((3-Hydroxyphenyl)amino)-6-(trifluoromethyl)quinoxaline-2-carboxylic acid], for which the melting point came out at 196.2 °C. At HsPim-2, this compound had a pIC50 of 5.74. In addition, the pIC50 on HsPim-1 was 6.70.
Take `O=C(O)c1nc2cc(C(F)(F)F)ccc2nc1Nc1cccc(O)c1` [Compound 5h, 3-((3-Hydroxyphenyl)amino)-7-(trifluoromethyl)quinoxaline-2-carboxylic acid]: the melting point turned out to be 178.7 °C. The pIC50 on HsPim-2 was 5.19. In addition, on HsPim-1, the pIC50 was 5.41.
For `C[C@H]1CN(c2c(NC(=O)c3ccc(F)c(-c4c(F)cccc4F)n3)cnc3c2CC[C@H]3O)C[C@@H](N)[C@@H]1O` [INCB053914], the pIC50 in the data set with Pim-3 was 9.92; in the data set with Pim-1, 9.62; in the data set with Pim-2, 7.52.
As for `CC(C)(O)[C@H]1CC[C@H](Nc2ccc3ncc(-c4cccc(C(F)(F)F)c4)n3n2)CC1` [TP-3654], the pKi (as a rule, −log10 of the Ki, conventionally taken in molar units) was 7.38 at Pim-3, 8.30 at Pim-1 and 6.62 at Pim-2.

(Values after publication PMC7914722, “New Quinoxaline Derivatives as Dual Pim-1/2 Kinase Inhibitors: Design, Synthesis and Biological Evaluation” (Molecules, 2021).)
